Laboratory results taken from US20130004581A1, “CONTROLLING UPTAKE BY CELLS” (Ramot at Tel-Aviv University Ltd., priority 2010, published 2013).

Assays:
[1] = system: HaCaT cells; experiment: Proton induced uptake (PIU) in HaCaT cells, FACS; format: cell-based, human; conditions: for effect of actin cytoskeleton modifier on rate of PIU of dextran-FITC: latrunculin-A 1 μM, cytochalasin-B 10 μM, wortmannin 1 μM, calyculin-A 50 nM, 15 minutes before, pH 5.25 10 minutes, 70 kD dextran-FITC 5 μM; for extent of PIU of dextran-FITC compared to normal cells: 25 μM added 10 minutes prior, pH 5.2 for 10 minutes, dextran-FITC 70 kDa
Protocol: FIG. 6 is a chart showing PIU of molecules different by size and charge, in accordance with some embodiments of the invention. Hacat cultures were exposed to solutions of pH 5.2 or pH 7.4 for 5 minutes period, in the presence of different fluorescence molecules (All at 25 μM concentration). FACS analysis results (FL1, geometrical mean±SD) for the cell cultures exposed to pH 5.2 are presented as fold induction relative to results obtained for cells exposed to pH 7.4. This can be used, in some embodiments of the invention, to assess effect of molecule size and charge on uptake.
FIGS. 7A-7B are charts showing the comparison of PIU in adherent and suspended HaCaT cells, in accordance with some embodiments of the invention. For FIG. 7A, HaCaT cells were tested either at their adherent state, or following harvest at a suspended state. […] FACS analyses (FL1) in terms of geometrical mean±SD are presented as fold induction relative to the constitutive uptake at physiological pH 7.4. n=9 in 3 independent experiments. For FIG. 7B, HaCaT Cells were cultivated at low, medium or high cell density. […] The cultures were harvested and undergone FACS analyses (FL1) in terms of geometrical mean±SD and are presented as fold induction relative to the constitutive uptake of low density cultures. Statistical significance was tested against the confluent culture, n=9 in 3 independent experiments. In the charts, * indicates a t-test p<0.05; and ** indicates a t-test p<0.01. This can be used, in some embodiments of the invention, to assess effect of cell membrane rigidity and/or tissue structure on uptake.
FIGS. 12A-12B are a chart and images which show the relative change of PIU by modifiers of actin cytoskeleton organization, in accordance with some embodiments of the invention. […].

[2] = system: COS 5-7 cells; experiment: Uptake after one minute of electric pulse train (EPT) in three-compartment device, FACS; format: cell-based, African green monkey; conditions: in the presence of both 2 mM SAA and 1 mM DHA
Protocol: Exposure of cells to low-intensity trains of unipolar rectangular voltage pulses was carried in a three-compartment exposure set-up where the anode and cathode were connected to an electric pulse generator (Grass S44 Stimulator). The exposure set-up consisted of a rectangular chamber made from polystyrene, 15 mm long, 10 mm wide, with 0.5 cm^2 area platinum electrodes positioned on the extreme sides (see FIG. 15). The chamber is divided by two porous membranes (PolyEtherSulfon, 0.8 μm pores, 200 μm depth), into three distinct and equal compartments: anode, cathode and center ones. The electric field parameters applied were monitored on line by recording the voltage and the current (by means of a wide band current probe, Pearson) on an oscilloscope. Typically, a cell suspension (1*10^6 cells/ml) is exposed to a train of electric pulses consisting of unipolar rectangular pulses with duration of 180 μs, frequency of 500 Hz for the total time of exposure of one minute.
Flow cytometry analysis was carried out by FACSort (Becton @ Dickson, San Jose, Calif.), employing a 488-nm argon laser excitation. […] Ten thousand cells were examined for each sample and data were collected in the list mode. The analysis of flow cytometry data was performed using WINMDI 2.9 software (Joe Trotter, The Scripps Research Institute). For each sample the geometrical mean was calculated without including PI stained cells. Cell intensity was determined as fold of induction relative to cells' constitutive uptake.

[3] = system: COS 5-7 cells; experiment: Intracellular oxidative stress (DCF fluorescence) after exposure to EPT, FACS; format: cell-based, African green monkey; conditions: EPT 20V/cm
Source text: FIG. 18 is a chart of intracellular oxidative stress in the presence of anti-oxidants in the extracellular and the intracellular compartments, in accordance with some embodiments of the invention. The intracellular oxidative stress measured by intracellular DCF fluorescent intensity following cell exposure to electric pulse train, analyzed by FACS (488/530 nm). Results are given as folds of geometrical mean±SD relative to the level of constitutive oxidative stress. Statistical t-test results: 2 mM SAA; p<0.05, 1 mM DHA; p<0.01.
Harvested cells were incubated with H2DCF-DA (20 μM for 90 minutes 5% CO2 at 37°). Following the loading process the cells were washed once with HBSS before exposure to EPT. H2DCF-DA is a non-fluorescent form of fluorescein, passively permeating into the cell where it is cleaved by cytosolic esterase to H2DCF. It gains its fluorescent properties when oxidized into DCF. DCF intensity was analyzed by FACS using the 530/30 nm channel.
The intracellular OS level was monitored by H2DCF, a non-fluorescent probe that is oxidized by radical hydroxyls into the fluorescent DCF form. Following the cells pre-loading with H2DCF, OS levels, as monitored by intracellular DCF fluorescence intensity, are elevated only in those cells suspended and exposed to EPT in the anode compartment (20V/cm, 200 mA/cm^2). […]

[4] = 2 mM added to medium prior to EPT (20V/cm, 200 mA/cm^2)
Protocol: In order to determine the EPT induced oxidative stress in the extracellular media, TMB was employed, a colorless solution that transforms into blue when oxidized. TMB was added to the media before exposure to EPT. […] Light absorbance was measured using Tecan GENios plate reader at 450 nm. […] In order to moot this possibility, OS was examined in the three-compartment device, monitored by the color conversion of TMB.

[5] = system: COS 5-7 cells; experiment: Uptake after one minute of chemically induced low pH (HCl added to HBSS suspension), FACS; format: cell-based, African green monkey; conditions: 50 mM
Protocol: The following tables show a connection between pH and current. […] The values in the tables are shown as folds relative to the uptake in cells unexposed to any of the treatments. […] The results are expected to be substantially independent of cell type and molecule used, except for a cell-specific change and a molecule specific change.
Cells (COS 5-7) were harvested, re-suspended in DMEM (1 mg/ml glucose, 5% FCS), and incubated (37°, 5% CO2) as designated by the experiment. For uploading the cells with either H2DCF-DA (20 μM) or Bis-DHA (1 mM) incubation lasted 90 minutes. When no pre-treatments were required, the cells were kept in the DMEM for 30 minutes. Following incubation, the cells were centrifuged at 400g for 1 min, the solution aspirated, and cells re-suspended in HBSS exposure media.
Exposure of cells to pulse acidification was through the addition of HCl to the HBSS suspension for 60 seconds, terminated by the addition of a three fold larger volume of DMEM-H.
Cell suspensions were centrifuged (400g for one minute), their solutions aspirated and they were re-suspended with 0.5 ml DMEM-H supplemented with 10u/ml dextranase (Sigma-Aldrich) for 10 minutes at RT. Cells were centrifuged again; their solution aspirated and they were re-suspended with 0.2 ml DMEM-H. PI (25 μg/ml) as a label for permeabilized cells and tryphan blue (0.01% w/v) as a fluorescence quenching agent for extracellular FITC (36) were added to each sample shortly before analysis
Flow cytometry analysis was carried out by FACSort (Becton @ Dickson, San Jose, Calif.), employing a 488-nm argon laser excitation. The green fluorescence of FITC was measured via 530/30 nm filter, the red fluorescence of PI was detected via a 585/42 nm filter. […] Ten thousand cells were examined for each sample and data were collected in the list mode. The analysis of flow cytometry data was performed using WINMDI 2.9 software (Joe Trotter, The Scripps Research Institute). For each sample the geometrical mean was calculated without including PI stained cells. Cell intensity was determined as fold of induction relative to cells' constitutive uptake.
After one minute incubation, cell suspensions were immediately diluted with 3 fold larger volume of cold buffered DMEM to restore pH to a normal pH of 7.5.

COC[C@@H]([C@H](O)[C@H](O)C(=O)NCC[C@H](C)c1nc(/C=C/C[C@@H]2O[C@]3(C[C@@H](O)[C@@H]2C)O[C@H]([C@H](C[C@H](O)[C@H](C)[C@H](O)[C@H](C)/C=C(C)/C(C)=C/C=C/C(C)=C\C#N)OC)[C@H](OP(=O)(O)O)C3(C)C)co1)N(C)C [calyculin-A]
effect of actin cytoskeleton modifier on rate of PIU of dextran-FITC [1]: relatively minute impact on PIU increase

C/C1=C/C(=O)O[C@@H]2C[C@@H](CC[C@H](C)/C=C\C=C\CC1)O[C@@](O)([C@@H]1CSC(=O)N1)C2 [latrunculin-A]
effect of actin cytoskeleton modifier on rate of PIU of dextran-FITC [1]: only small PIU enhancement

C=C1[C@@H](C)[C@H]2[C@H](Cc3ccccc3)NC(=O)[C@]23OC(=O)/C=C/[C@H](O)CCC[C@@H](C)C/C=C/[C@H]3[C@@H]1O [cytochalasin-B]
effect of actin cytoskeleton modifier on rate of PIU of dextran-FITC [1]: doubled

O=C1O[C@H]([C@@H](O)CO)C(O)=C1O.[Na] [SAA, Sodium ascorbic acid]
effect on EPT induced uptake of dextran-FITC [2]: only a minor decrease
decline of intracellular OS (DCF fluorescence) ([3]; 2 mM in external medium, 200 mA/cm^2, anode compartment): 66%
effect on TMB oxidation during electric exposure [4]: prevented its oxidation

lucifer yellow
extent of PIU compared with fluorescein and dextran ([1]; pH 5.2 vs pH 7.4, 5 minutes, 25 μM): lesser extent of PIU

N#CC(C#N)=NNc1cccc(Cl)c1 [CCCP]
extent of PIU of dextran-FITC compared to normal cells [1]: higher

O=C(CCc1ccc(O)cc1)c1c(O)cc(O)cc1O [Phloretin]
extent of PIU of dextran-FITC compared to normal cells [1]: higher

O=C1OC2C(O)COC23OC24OCC(O)C2OC(=O)C4(O)OC13O (stereo not drawn) [DHA, Bis-Dehydroascorbic acid]
effect on EPT induced uptake of dextran-FITC [2]: only a minor decrease
effect on EPT induced increase of DCF fluorescent intensity ([3]; cells pre-loaded (1 mM, 90 minutes), 200 mA/cm^2): sufficient to abolish

[Cl-].[Na+] [NaCl]
change in uptake when HCl is replaced by the same concentration of salt (osmolarity control) [5]: no change in uptake was observed
